A short description of data set [1]: Ligand facilitated Fe(III) efflux from liposomes. Also noted: unit not given here. The format is biochemical. The note with it: efflux rate k at 10 μM ligand concentration; ferrozine absorbance 562 nm, 120 min kinetic read. The method, then:
Assay 1: Ligand Facilitated Fe(III) Efflux from Liposomes
Preparation of POPC (1 palmitoyl-2-oleoyl-sn-glycero-3 phosphocholine): Cholesterol Liposomes
A 1M buffer solution of MES and Tris was prepared by dissolving 121.14 grams of Tris base and 213.25 grams of MES hydrate in 500 mL of MilliQ water and adjusted to pH7.0 using an […] HCl solution before bringing the total volume of the solution to 1 L. A 500 mM solution of FeCl3 was prepared by dissolving 0.811 grams of anhydrous FeCl3 in 10 mL of a 0.1M H2SO4 aqueous solution. Inside buffer is prepared in a 50 mL falcon tube, which was added with 25 mL of MilliQ water, 1.61 g of sodium citrate, 1.5 mL of the above FeCl3 solution, and 2.5 mL of the 1M MES/Tris HCl buffer (pH=7.0), and finally additional MilliQ H2O to bring to a 50 mL final volume.
Lipid solution is prepared by dissolving 206.9 mg of POPC (1-palmitoyl-2-oleoyl-sn-glycero-3-phosphocholine) and 8.6 mg of cholesterol in 10 mL of ethanol.
The lipids solution and the inside buffer solution are independently loaded into 10 mL luer lock syringes for loading into a virgin cartridge on a Precision Nanosystems NanoAssembler to prepare unilamaller liposomes with the following parameters: 7.5 mL total volume, 1.5:1 mixing ratio of inside buffer:lipids solution, 8 mL/min flow rate, ambient temperature, 0.35 mL start waste, and 0.05 mL of end waste. 7.5 mL of liposomes is harvested for purification on a 6-inch long, 1-inch diameter Sephadex G-50 column wetted in 600 mM sodium ascorbate and 50 mM MES/Tris HCl pH 7.0 buffer. This buffer also serves as the column running buffer. The crude liposome solution is carefully loaded with minimal volume of running buffer above the top of the Sphadex, allowed to enter the matrix, and the column is run with the continued addition of running buffer. The eluting liposomes, observed as a milky and turbid solution, are collected until free iron begins to elute (observed as a deep purple color) and the fractions are pooled for phosphorus quantitation.
Determination of Phosphorus Content:
Phosphorus content of eluted liposomes was determined by the process outlined below. 10 μL of liposome elution and a running buffer blank are added to a 5 mL glass vial containing 450 μL of a 8.9 M aqueous H2SO4 solution, the mixture is heated to 225° C. for 25 minutes in an aluminum heat block to hydrolyze POPC and cooled for 5 minutes. 200 μL of a 30% hydrogen peroxide aqueous solution is added to each vial and heated to 225° C. for 25 minutes. After cooling, the phosphorus content was determined using an Abcam Phosphate Assay kit, with buffer subtracted phosphorus levels determined against a standard curve of phosphate included in the kit. Liposomes were diluted to 1 mM phosphate in Running Buffer for use in assays after accounting for dilutions made during phospholipid digestion.
Determination of the Iron Transporting Rate Constant of the Ligands:
Determination of the rate at which a small molecule ligand liberates (transport) Ferric iron from liposomes is performed in clear bottom black 384-well plates on a Spectramax i3x set to read the absorbance at 562 nm in the kinetic mode every 60 seconds for 120 minutes. 1 μL of serially diluted DMSO stock solution of a small molecule ligand is added to wells in triplicate to give the final concentrations of 40, 20, 10, 5, 2.5, and 1.25 uM of the ligand at 80 μL final volume, followed by addition of 1 μL of 100 mM Ferrozine in water to give a final concentration of 1 mM ferrozine. 78 μL of liposomes diluted to 1 mM phosphorus in running buffer is added to wells as quickly as possible (using a digital repeater multichannel pipette) with the kinetic read initiated as rapidly as possible after addition of liposomes to all wells. Typically, eight compounds at six concentrations are tested in triplicate simultaneously. […]

In data set [2] the test system is DMT1-deficient Caco-2 cells. As to the kind of experiment: shDMT1-Caco2 55Fe transport assay. The note with it: Caco-2. The format is cell-based. From the text:
Assay 2: shDMT1-Caco2 ^55Fe Transport Assay to Assess Ligand Ability in Transporting Fe (III)
Cells: DMT1-deficient Caco-2 cells (alias: “shDMT1,” or “4A” cells) were from Grillo et al. Science, 2017, and were cryopreserved in liquid nitrogen prior to use.
Reagents and supplies: ^55FeCl3 was obtained from PerkinElmer (Boston, MA). Iron(III) chloride (FeCl3) hexahydrate was obtained from Sigma. Dulbecco's Modified Eagle Medium (DMEM), fetal bovine serum (FBS), L-glutamine, MEM nonessential amino acids, penicillin-streptomycin, G418, formic acid, methanol, high-purity water, ammonium formate, dimethyl sulfoxide (DMSO) were purchased from Fisher Scientific. Propranolol, atenolol and carbutamide were obtained from Sigma-Aldrich Chemical Company (St Louis, MO). Scintillation cocktail was obtained from Research Product International Co. (Mount Prospect, IL). Stericup filter system (PES membrane, 0.22 um pore size) was purchased from Fisher Scientific. Corning item #3378 24-well transwell insert plates.
Test articles: known compounds hinokitiol and deferiprone were purchased from Sigma. They are tested side by side with the small molecule ligands disclosed in this application. DMSO stocks (10 mM, which is 1,000× of the 10 μM dose level) of hinokitiol or test articles were prepared. A stock solution of 25 mM deferiprone in DMSO was prepared. The DMSO stock solutions were stored at −20° C. or below when not in use.
The growth medium was prepared according to the following table
Apical media (serum free DMEM, 10 mM MES, pH 6.5) was prepared. Apical master mix media was prepared fresh with the addition of 200 nM ^55Fe before each experiment. For the negative control propranolol and atenolol wells, 200 nM of non-radioactive iron was used.
The basolateral media was serum-free DMEM, 10 mM HEPES, 2% bovine serum albumin (BSA), pH 7.4.
For each experiment, cells were seeded into the 24-well transwell plates (0.5 mL of 50,000 cells/mL) with growth media. The basolateral companion plate was loaded with 1 mL of growth media. After 12-24 hr, both the apical and basolateral chamber were replaced with growth media. The apical media was changed 3× per week for 21-28 days, including a media change exactly 48 hr before the assay date.
On the assay day, the TEER values were measured and the average TEER value was obtained. Individual wells with TEER value >35% lower than the average of all wells were excluded. For the qualified wells, the apical layer (twice) and basolaterial (once) chambers were washed with PBS. The basolateral companion plate was then filled with 1 mL of basolateral media. Via addition down the side-wall of the apical well, 300 μL per well of the apical assay master mix, with the indicated dose level of test article, was added. Each dose was tested in triplicate. The plates were incubated (5% CO2 and 90% humidity at 37° C.) for the indicated timepoints. At each indicated timepoint, the basolateral supernatant was gently mixed via pipetting, and 200 μL of the basolateral supernatant was transferred to scintillation vials. To each scintillation counting vial, 5 mL of scintillation cocktail fluid was added. For each scintillation vial, the radioactivity (CPM) was determined with liquid scintillation counter LS6500. The counting time per vial was 5 min.
All raw CPM values are divided by the average value of blank DMSO solution to give a fold of change above the DMSO value. The mean and standard deviation of each compound at each concentration level and at each time point measured was calculated to give the fold change (fc) value. For rank order compounds, the fc value of a ligand at 4 h time point is further divided by the fold change (fc) value of hinokitiol (a positive control compound) at an equimolar concentration to arrive at the FC (normalized fold of change) value. Data reported in Tables 1 and 2 is 4 hr time point FC=fc-ligand @ 3 uM/fc-hino @ 3 μM, and FC hino=1.
In general terms: Passage across Caco-2 layers is used to estimate intestinal permeability.

The nature of another data set: Mouse 6-hour PK study. The note with it: mouse, in vivo. From the text: Useful such assays include, but are not limited to e.g., those measurements made in PK studies, such as rodent and non-human primate PK studies, including e.g., mouse (such as mouse 6-hour PK studies), rat PK studies, cynomolgus or rhesus PK studies, or the like. Useful measurements obtained in such PK studies include but are not limited to e.g., maximum concentration (Cmax) reflecting the “peak” of a drug observed after its administration that can reflect not only the rate but also the extent of absorption, area under the curve (AUC) representing the area under the plot of tissue (e.g., plasma) concentration against time after drug administration which is of particular use in estimating bioavailability of drugs and drug total clearance, half-life (t1/2) or the period of time required for the concentration or amount of drug to be reduced to exactly one-half of a given concentration or amount that indicates the persistence of the drug in its volume of distribution, and the like.
Such assessments included human and mouse liver microsomal stability assays as well as 6-hour mouse PK studies.

The results in this text go back to patent publication US20230406803A1, “TROPOLONE DERIVATIVES AND TAUTOMERS THEREOF FOR IRON REGULATION IN ANIMALS” (Kinesid Therapeutics, Inc, priority 2020, published 2023).

Turning to `CC(C)c1cccc(F)c(=O)c1O` [drawing 179], in data set [1], the “Liposome Fe transport kefflux at 10 μM” value was 10-25. Further, the “Caco2 shDMT1 transport FC @ 3 μM, 4 h” value in data set [2] was 0.01-0.5.
In the same order, the values of `O=c1ccccc(C2CCCCO2)c1O` (centres unmarked) are 0.1-5 and 1-5.
For `CCOc1cccc(=O)c(O)c1`, the “Liposome Fe transport kefflux at 10 μM” value in data set [1] is 5-7.5. The “Caco2 shDMT1 transport FC @ 3 μM, 4 h” value in data set [2] is 0.5-1.
The matching figures for `CCc1ccc(C)c(=O)c(O)c1`: 5-7.5 and 0.5-1.
The matching figures for `O=c1ccccc([C@@H]2CCCO2)c1O`: 7.5-10 and 0.1-5.
As to `CC(C)c1cccc(=O)c(O)c1F` [drawing 177], the “Liposome Fe transport kefflux at 10 μM” value in data set [1] is 10-25. For the same compound, the “Caco2 shDMT1 transport FC @ 3 μM, 4 h” value in data set [2] is reported as 0.01-0.5.
In the same order, the values of `Cc1ccc(C(C)C)cc(O)c1=O` are 0.1-5 and 0.5-1.
For the compound `O=c1ccccc(C2CCCO2)c1O` (centres unmarked), in data set [1], the “Liposome Fe transport kefflux at 10 μM” value was 10-25. In addition, the “Caco2 shDMT1 transport FC @ 3 μM, 4 h” value in data set [2] is on record as 1-5.
In the same order, the values of `Cc1cccc(C)c(=O)c1O` are 10-25 and 1-5.
In the same order, the values of `O=c1ccccc(OC2CCC2)c1O` [drawing 233] are 7.5-10 and 0.01-0.5.
Consider `Cc1ccc(C)c(=O)c(O)c1`, for which, in data set [1], the “Liposome Fe transport kefflux at 10 μM” value is listed as 0.1-5. Further, the “Caco2 shDMT1 transport FC @ 3 μM, 4 h” value in data set [2] is 1-5.
In the same order, the values of `O=c1c(F)cccc(C2CCOCC2)c1O` [drawing 211] are 5-7.5 and 0.01-0.5.
In the same order, the values of `CC(C)Oc1cccc(=O)c(O)c1` are 5-7.5 and 0.5-1.
The matching figures for `CC(C)Oc1ccc(O)c(=O)cc1`: 7.5-10 and 0.01-0.5.
In the case of `CCc1ccc(O)c(=O)c(F)c1`, the “Liposome Fe transport kefflux at 10 μM” value in data set [1] is 0.1-5. Moreover, the “Caco2 shDMT1 transport FC @ 3 μM, 4 h” value in data set [2] is reported as 0.01-0.5.
The matching figures for `O=c1ccccc(OCC2CC2)c1O` [drawing 260]: 10-25 and 1-5.
For the compound `Cc1ccc(O)c(=O)c(F)c1`, the “Liposome Fe transport kefflux at 10 μM” value in data set [1] is given as 0.1-5. Further, the “Caco2 shDMT1 transport FC @ 3 μM, 4 h” value in data set [2] is reported as 0.01-0.5.
Turning to `Cc1cc(C(C)C)ccc(O)c1=O` [drawing 203], in data set [1], the “Liposome Fe transport kefflux at 10 μM” value is 10-25. For the same compound, the “Caco2 shDMT1 transport FC @ 3 μM, 4 h” value in data set [2] is reported as 1-5.
The matching figures for `O=c1ccc(C2CCC2)ccc1O`: 10-25 and 0.01-0.5.
The matching figures for `CC1(C)CCC(c2cccc(=O)c(O)c2)C1` (centres unmarked): 5-7.5 and 0.01-0.5.
The matching figures for `O=c1c(O)ccccc1F`: 0.1-5 and 0.01-0.5.
On to `Cc1cccc(F)c(=O)c1O` [drawing 207], for which the “Liposome Fe transport kefflux at 10 μM” value in data set [1] was 10-25. For the same compound, in data set [2], the “Caco2 shDMT1 transport FC @ 3 μM, 4 h” value was 0.01-0.5.
The matching figures for `O=c1ccc(OC2CCC2)ccc1O`: 10-25 and 1-5.
For the compound `O=c1ccccc(OC2COC2)c1O`, in data set [1], the “Liposome Fe transport kefflux at 10 μM” value was 0.1-5. In addition, in data set [2], the “Caco2 shDMT1 transport FC @ 3 μM, 4 h” value is recorded as 0.01-0.5.
In the same order, the values of `O=c1cccc(C2CC3CCC(C2)O3)cc1O` (centres unmarked) [drawing 181] are 7.5-10 and 0.01-0.5.
With `Cc1cccc(C(C)C)c(O)c1=O` [drawing 205], the “Liposome Fe transport kefflux at 10 μM” value in data set [1] is 5-7.5. Also, the “Caco2 shDMT1 transport FC @ 3 μM, 4 h” value in data set [2] is given as 0.5-1.
Usually AUC(0-t) stands for exposure summed from dosing to a finite time, without extrapolation to infinity. As usually defined, the Cmax is the peak of the concentration-time curve. Broadly, the half-life is the time needed for the level to fall by half in the phase considered. For `O=c1cccc(C2CC3CCC(C2)O3)cc1O` (centres unmarked) [Ex. 6, 4-(8-oxabicyclo[3.2.1]octan-3-yl)-2-hydroxycyclohepta-2,4,6-trien-1-one], in “Mouse 6-hour PK study”, the AUC(0-t) was 500 to 1500 ng·h/mL, the Cmax fell in the range of 500 to 1500 ng/mL, the half-life was in the range of 75 to 299 min and the “mouse 6-hour PK properties as compared to hinokitiol” value is listed as “one or more improved mouse 6-hour PK properties as compared to hinokitiol”.
